The source of these data is patent publication US7592457B2 (Korea Research Institute of Chemical Technology, priority 2004, dated 2009).

In general, melting point refers to the temperature of the solid-liquid transition. One may read the inhibition as the percentage by which the read-out fell short of the control. Usually IC50 stands for the concentration that inhibits the measured activity by half. As usually defined, the Ki is the equilibrium dissociation constant of an inhibitor or competing ligand from its target. For orientation: pA2 means the negative logarithm of the molar antagonist concentration that doubles the agonist concentration needed for the same response.

The target in one data set is D1 (Homo sapiens, UniProt P21728). Briefly: Radioligand binding for selectivity, D1. As to conditions: read-out: Binding affinity (Inhibition rate % at 10 μM) D1.
D1, sequence (P21728 whole entry): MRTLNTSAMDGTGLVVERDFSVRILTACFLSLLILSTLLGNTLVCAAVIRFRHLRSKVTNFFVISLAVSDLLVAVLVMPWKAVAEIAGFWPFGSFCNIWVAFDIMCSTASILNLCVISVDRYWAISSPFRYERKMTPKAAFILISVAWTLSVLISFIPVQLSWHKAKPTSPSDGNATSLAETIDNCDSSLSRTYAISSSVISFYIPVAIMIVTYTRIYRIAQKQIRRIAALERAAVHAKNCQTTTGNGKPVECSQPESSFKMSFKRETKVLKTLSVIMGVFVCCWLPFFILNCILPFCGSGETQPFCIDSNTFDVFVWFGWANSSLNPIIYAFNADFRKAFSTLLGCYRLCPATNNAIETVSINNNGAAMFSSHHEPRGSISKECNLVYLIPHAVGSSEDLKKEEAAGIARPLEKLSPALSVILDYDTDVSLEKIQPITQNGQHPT
Another data set has as its target T1, 5-HT1a (Homo sapiens, UniProt P08908).
T1 construct: purchased Euroscreen/BioSignal Packard Inc
T1 sequence (P08908 1-422): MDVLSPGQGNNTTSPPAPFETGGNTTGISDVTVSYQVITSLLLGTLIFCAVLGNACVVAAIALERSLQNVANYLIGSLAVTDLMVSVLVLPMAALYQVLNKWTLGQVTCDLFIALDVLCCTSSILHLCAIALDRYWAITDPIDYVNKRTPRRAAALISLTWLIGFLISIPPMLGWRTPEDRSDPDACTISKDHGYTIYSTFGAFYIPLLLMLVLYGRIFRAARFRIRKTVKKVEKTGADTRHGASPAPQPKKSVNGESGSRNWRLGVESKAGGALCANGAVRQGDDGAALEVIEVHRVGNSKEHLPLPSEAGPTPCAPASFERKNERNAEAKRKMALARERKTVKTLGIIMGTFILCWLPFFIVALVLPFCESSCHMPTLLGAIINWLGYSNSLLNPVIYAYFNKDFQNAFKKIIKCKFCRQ
Kind of data set: Radioligand binding, 5-HT1a ([3H]8-OH-DPAT). As to conditions: read-out: Binding affinity (Inhibition rate % at 10 μM) 5HT1a. As to the method:
(§1) Radioligand bindings were performed according to the test method provided by the supplier of receptor membrane (Euroscreen/BioSignal Packard Inc.).

Another data set addresses T2, 5-HT2c (Homo sapiens, UniProt P28335).
T2 construct: purchased Euroscreen/BioSignal Packard Inc
T2 sequence (P28335 33-458): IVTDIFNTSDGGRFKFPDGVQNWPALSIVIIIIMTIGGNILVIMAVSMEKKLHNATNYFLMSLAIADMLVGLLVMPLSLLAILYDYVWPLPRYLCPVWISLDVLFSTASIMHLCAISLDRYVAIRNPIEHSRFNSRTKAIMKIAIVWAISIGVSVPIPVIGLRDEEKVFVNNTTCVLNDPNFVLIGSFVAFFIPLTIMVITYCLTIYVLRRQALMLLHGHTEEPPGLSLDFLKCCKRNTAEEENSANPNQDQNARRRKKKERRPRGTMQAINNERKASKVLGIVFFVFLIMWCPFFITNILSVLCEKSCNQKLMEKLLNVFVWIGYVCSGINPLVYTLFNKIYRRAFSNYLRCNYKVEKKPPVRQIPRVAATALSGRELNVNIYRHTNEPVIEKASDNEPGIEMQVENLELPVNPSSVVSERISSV
Kind of data set: Radioligand binding, 5-HT2c ([3H]Mesulergine). As to conditions: read-out: Binding affinity (Inhibition rate % at 10 μM) 5HT2c. The method, then: as §1

The target of data set [1] is T3, 5-HT6 receptors (Homo sapiens, UniProt P50406). Kind of data set: 5-HT-stimulated cAMP accumulation in HeLa cell transfected with human 5-HT6 receptor. The format is cell-based. The arrangement: host or cells: HeLa. The note with it: for Antagonist activity compared with methiothepin: 5-HT-stimulated cAMP accumulation; for Functional classification at 5-HT6 receptor: inhibition of 5-HT-stimulated cAMP accumulation. The method, then: By a method (2000) disclosed by Rutledge et al. of MDS Pharma Service (Bothell, Wash., USA, MDSPS PT# 1037161), activity of adenylil cyclase in HeLa cell having transfected with human 5-HT6 receptor was measured. The assay mixture consisted of Hanks' balanced salt solution (HBSS, pH 7.4) containing: 1 mM MgCl2, 1 mM CaCl2, […] 1-methyl-3-isobutylxanthine. Incubation was started by addition of membrane suspension and compounds according to the present invention.
T3 sequence (P50406 whole entry): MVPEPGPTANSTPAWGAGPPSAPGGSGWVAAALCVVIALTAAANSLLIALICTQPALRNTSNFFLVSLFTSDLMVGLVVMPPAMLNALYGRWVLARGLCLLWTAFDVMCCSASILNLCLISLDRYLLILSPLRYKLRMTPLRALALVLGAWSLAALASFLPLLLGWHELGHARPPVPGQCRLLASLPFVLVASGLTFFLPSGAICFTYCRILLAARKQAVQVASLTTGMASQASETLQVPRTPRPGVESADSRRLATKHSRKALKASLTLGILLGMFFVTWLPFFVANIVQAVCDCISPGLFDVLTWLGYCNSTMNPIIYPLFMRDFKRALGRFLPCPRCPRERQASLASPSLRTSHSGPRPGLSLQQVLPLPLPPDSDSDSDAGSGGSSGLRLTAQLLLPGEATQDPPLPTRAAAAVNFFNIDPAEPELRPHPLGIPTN
A general note: cAMP levels reflect the balance of adenylyl cyclase and phosphodiesterase activity.

Another data set addresses T4, 5-HT2a (Homo sapiens, UniProt P28223).
T4 construct: purchased Euroscreen/BioSignal Packard Inc
Briefly: Radioligand binding, 5-HT2a ([3H]Ketanserin). The note with it: read-out: Binding affinity (Inhibition rate % at 10 μM) 5HT2a. The method, then:
as §1

A further data set concerns the target T5, hD4.2 receptor (Homo sapiens, UniProt P21917, DEL265-296).
T5 construct: purchased BioSignal Packard Inc., Montreal, Canada
T5 sequence (P21917 with tags, fused parts or gaps DEL265-296): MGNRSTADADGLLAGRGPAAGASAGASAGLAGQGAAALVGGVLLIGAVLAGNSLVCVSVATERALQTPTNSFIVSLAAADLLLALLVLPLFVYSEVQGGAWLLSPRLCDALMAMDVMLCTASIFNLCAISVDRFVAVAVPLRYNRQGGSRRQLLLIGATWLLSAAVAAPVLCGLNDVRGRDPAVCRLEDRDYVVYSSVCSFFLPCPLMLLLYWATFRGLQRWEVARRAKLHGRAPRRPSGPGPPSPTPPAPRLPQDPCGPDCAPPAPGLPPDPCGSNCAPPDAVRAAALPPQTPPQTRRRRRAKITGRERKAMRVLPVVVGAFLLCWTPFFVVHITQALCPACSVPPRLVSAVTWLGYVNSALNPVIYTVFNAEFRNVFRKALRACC
Briefly: Radioligand binding, dopamine D4 ([3H]YM-09151-2). As to conditions: read-out: Binding affinity (Inhibition rate % at 10 μM) D4.

The target of the next data set is T6, hD3 receptor (Homo sapiens, UniProt P35462).
T6 construct: purchased BioSignal Packard Inc., Montreal, Canada
T6 sequence (P35462 whole entry): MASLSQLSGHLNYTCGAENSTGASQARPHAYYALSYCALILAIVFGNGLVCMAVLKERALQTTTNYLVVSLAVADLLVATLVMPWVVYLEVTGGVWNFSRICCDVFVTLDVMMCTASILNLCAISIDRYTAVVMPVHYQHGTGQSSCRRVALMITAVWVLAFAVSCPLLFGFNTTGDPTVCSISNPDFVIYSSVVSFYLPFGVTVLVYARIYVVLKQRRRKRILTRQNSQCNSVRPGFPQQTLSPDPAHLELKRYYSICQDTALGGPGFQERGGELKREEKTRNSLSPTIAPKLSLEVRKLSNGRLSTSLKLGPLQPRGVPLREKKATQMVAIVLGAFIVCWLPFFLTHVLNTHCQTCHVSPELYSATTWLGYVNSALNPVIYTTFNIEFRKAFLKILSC
Kind of data set: Radioligand binding, dopamine D3 ([3H]spiperone). The note with it: read-out: Binding affinity (Inhibition rate % at 10 μM) D3.

The target in the next data set is T7, 5-HT7 (Homo sapiens, UniProt P34969).
T7 construct: purchased Euroscreen/BioSignal Packard Inc
T7 sequence (P34969 whole entry): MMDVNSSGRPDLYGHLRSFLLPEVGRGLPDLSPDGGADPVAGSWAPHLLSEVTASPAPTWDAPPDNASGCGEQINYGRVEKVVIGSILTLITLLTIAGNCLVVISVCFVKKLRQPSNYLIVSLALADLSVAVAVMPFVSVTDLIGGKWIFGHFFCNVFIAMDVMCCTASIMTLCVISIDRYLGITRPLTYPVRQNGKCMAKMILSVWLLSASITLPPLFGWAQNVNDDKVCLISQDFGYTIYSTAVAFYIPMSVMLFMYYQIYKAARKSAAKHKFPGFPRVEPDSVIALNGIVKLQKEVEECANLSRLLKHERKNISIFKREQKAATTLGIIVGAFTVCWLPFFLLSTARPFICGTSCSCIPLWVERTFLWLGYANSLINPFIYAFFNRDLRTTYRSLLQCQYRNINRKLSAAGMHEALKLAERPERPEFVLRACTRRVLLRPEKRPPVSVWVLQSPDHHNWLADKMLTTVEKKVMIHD
Kind of data set: Radioligand binding, 5-HT7 ([3H]LSD). As to conditions: read-out: Binding affinity (Inhibition rate % at 10 μM) 5HT7. As to the method: as §1

The target of the next data set is T8, hD2L receptor (Homo sapiens, UniProt P14416).
T8 construct: purchased BioSignal Packard Inc., Montreal, Canada
T8 sequence (P14416 whole entry): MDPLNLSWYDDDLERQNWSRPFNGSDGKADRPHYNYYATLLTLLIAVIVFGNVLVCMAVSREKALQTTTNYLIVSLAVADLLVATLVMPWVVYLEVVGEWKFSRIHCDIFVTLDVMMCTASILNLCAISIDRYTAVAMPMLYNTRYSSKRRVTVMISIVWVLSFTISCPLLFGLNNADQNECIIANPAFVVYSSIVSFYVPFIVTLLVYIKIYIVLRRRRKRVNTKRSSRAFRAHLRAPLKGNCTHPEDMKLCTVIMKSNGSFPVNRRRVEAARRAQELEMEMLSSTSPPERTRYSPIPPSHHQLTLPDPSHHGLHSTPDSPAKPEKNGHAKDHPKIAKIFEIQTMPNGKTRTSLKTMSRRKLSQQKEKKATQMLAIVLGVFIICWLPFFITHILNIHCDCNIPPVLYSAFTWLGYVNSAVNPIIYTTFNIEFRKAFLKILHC
Kind of data set: Radioligand binding, dopamine D2 ([3H]spiperone). The note with it: read-out: Binding affinity (Inhibition rate % at 10 μM) D2.

Data set [2] deals with methamphetamine-induced hyperactivity and stereotypy. Briefly: Methamphetamine-induced hyperactivity and stereotypy in rats. Format: in vivo, rat. As to conditions: 50 mg/kg, i.p., methamphetamine 2 mg/kg. The method, then:
On the day of testing, rats (200-250 g) were put into a transparent polycarbonate cages located in the activity chamber, and adapted for 30 minutes. For a methamphetamine-induced activity, vehicle or compounds according to the present invention was injected (i.p.) 30 minutes before the injection of methamphetamine (2 mg/kg, i.p.). After systemic injection of methamphetamine, total movement distance traveled or total stereotypy was measured over the 120-minutes period using an activity analyzer (TruScan, Coulbourn Instruments, USA).
The inhibitory effect of compounds (50 mg/kg, i.p.) of the present invention on methamphetamine (2 mg/kg, i.p.)-induced hyperactivity in rats is shown in FIGS. 2(a) and 2(b). The inhibitory effects of compounds (50 mg/kg, i.p.) of the present invention on methamphetamine (2 mg/kg, i.p.)-induced stereotypy is shown in FIGS. 3(a) and 3(b).

Data set [3] deals with T9, human serotonin 5-HT6 receptor (Homo sapiens, UniProt P50406).
T9 construct: made in house; host or cells: Sf21 insect cells (pBacPAK8 baculovirus vector)
T9 sequence (P50406 whole entry): as the sequence (P50406 whole entry) above
Briefly: [3H]LSD binding at cloned 5-HT6 receptors. As to conditions: for IC50: [3H]LSD 1.87 nM, cloned receptor membranes, 37° C., 60 min, read-out: IC50; for 5-HT6 affinity compared with known selective antagonists: in words; for inhibition at 10 µM: read-out: Binding affinity (Inhibition rate % at 10 μM) 5HT6.

The target in data set [4] is T3, 5-HT6 receptors. As to conditions: literature; cited from earlier work.
Data set [5] addresses T3, 5-HT6 receptors. As to conditions: antagonist, literature; cited from earlier work.
A further data set concerns rats. The note with it: water maze, literature; cited from earlier work.
For data set [6] the following is noted: in vivo; cited from earlier work.
Data set [7] relates to rat maximal electroseizure threshold. As to conditions: rat maximal electroseizure threshold, oral administration, literature; cited from earlier work.

T4 sequence (P28223 whole entry): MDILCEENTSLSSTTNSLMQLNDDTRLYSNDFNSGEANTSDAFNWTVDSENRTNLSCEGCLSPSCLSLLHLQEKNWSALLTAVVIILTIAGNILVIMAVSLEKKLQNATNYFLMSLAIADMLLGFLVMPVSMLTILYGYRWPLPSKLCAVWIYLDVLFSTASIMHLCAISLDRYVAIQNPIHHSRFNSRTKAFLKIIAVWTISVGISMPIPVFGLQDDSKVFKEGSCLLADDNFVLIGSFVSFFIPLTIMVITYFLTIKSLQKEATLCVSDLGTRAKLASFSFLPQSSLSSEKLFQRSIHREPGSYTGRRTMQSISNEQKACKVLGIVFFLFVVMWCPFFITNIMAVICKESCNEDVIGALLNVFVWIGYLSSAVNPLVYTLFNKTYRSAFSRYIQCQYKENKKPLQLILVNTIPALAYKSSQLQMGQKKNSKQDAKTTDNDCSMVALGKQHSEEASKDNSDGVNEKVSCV

Regarding `CC1(c2ccccc2)C(=O)Nc2cc(Cl)cc(Cl)c2C1=O` (stereo not drawn) [Example 1, 5,7-dichloro-3-methyl-3-phenyl-1H-quinoline-2,4-dione], the melting point was 222 to 225 °C. For the same compound, the inhibition at 10 µM at D1 is 11.4%. Besides, the inhibition at 10 µM on 5-HT1a was 16.4%. At 5-HT2c, the inhibition at 10 µM came out at 18.3%. At 5-HT6 receptors [1], the “Antagonist activity compared with methiothepin” value is reported as “weaker antagonist activity than methiothepin” and the “Functional classification at 5-HT6 receptor” value was 5-HT6 receptor antagonist. Also, the inhibition at 10 µM on 5-HT2a was 6.4%. Also, the inhibition at 10 µM on hD4.2 receptor came out at 0%. Also, the inhibition at 10 µM at hD3 receptor turned out to be 12.6%. At 5-HT7, the inhibition at 10 µM was determined as 43.2%. Also, the inhibition at 10 µM on hD2L receptor was found to be 1.6%. The Antipsychotic effect entry in [2] is listed as “mild antipsychotic effect”. Moreover, in [3], the IC50 is 89 nM, the “5-HT6 affinity compared with known selective antagonists” value is given as “almost same affinities as or better affinities than known selective antagonists” and the inhibition at 10 µM came to 91.1%.

Consider `COc1cc2c(c(OC)c1)C(=O)C(C)(c1ccccc1)C(=O)N2` (stereo not drawn) [Example 8, 5,7-dimethoxy-3-methyl-3-phenyl-1H-quinoline-2,4-dione], for which the inhibition at 10 µM at D1 turned out to be 16.9%; on 5-HT1a, 30.2%; on 5-HT2c, 23.9%; at 5-HT2a, 13.6%; on hD4.2 receptor, 0.8%; on hD3 receptor it was 4.6%. Besides, the inhibition at 10 µM was 23.3% at 5-HT7, 16% at hD2L receptor and 74% in [3]. Moreover, at 5-HT6 receptors [4], the Ki is 1.4 nM. Also, the IC50 in [3] is 118 nM.

Compound `CC1(c2ccc(O)cc2)C(=O)Nc2cc(Cl)cc(Cl)c2C1=O` (stereo not drawn) [Example 13, 5,7-dichloro-3-(4-hydroxy-phenyl)-3-methyl-1H-quinoline-2,4-dione] came in with a melting point of 222 to 223 °C. For the same compound, the inhibition at 10 µM at D1 worked out at 51%. The inhibition at 10 µM on 5-HT1a is 33.9%. Besides, on 5-HT2c, the inhibition at 10 µM came out at 39.4%. On 5-HT6 receptors [1], the “Antagonist activity compared with methiothepin” value was “weaker antagonist activity than methiothepin” and the “Functional classification at 5-HT6 receptor” value is 5-HT6 receptor antagonist. Further, the inhibition at 10 µM at 5-HT2a amounted to 48.6%. Further, the inhibition at 10 µM on hD4.2 receptor was found to be 0%. The inhibition at 10 µM on hD3 receptor stood at 27.8%. Further, the inhibition at 10 µM on 5-HT7 came out at 36.7%. At hD2L receptor, the inhibition at 10 µM is 35.2%. The Antipsychotic effect entry in data set [2] is “mild antipsychotic effect”. In data set [3], the 50% inhibitory concentration (IC50) came to 20 nM, the “5-HT6 affinity compared with known selective antagonists” value is listed as “almost same affinities as or better affinities than known selective antagonists” and the inhibition at 10 µM was 89.5%.

The compound `COc1cc(Cl)c2c(c1)NC(=O)C(C)(c1ccc(Br)cc1)C2=O` (stereo not drawn) [Example 52, 3-(4-bromo-phenyl)-5-chloro-7-methoxy-3-methyl-1H-quinoline-2,4-dione] registered a melting point of 239 to 240 °C. The inhibition at 10 µM on D1 was 41.5%. For the same compound, at 5-HT1a, the inhibition at 10 µM came out at 7.8%. In addition, the inhibition at 10 µM on 5-HT2c was determined as 20%. Further, at 5-HT2a, the inhibition at 10 µM came to 30.6%. Also, the inhibition at 10 µM on hD4.2 receptor amounted to 0%. The inhibition at 10 µM on hD3 receptor was 7.4%. For the same compound, at 5-HT7, the inhibition at 10 µM turned out to be 8.8%. Moreover, the inhibition at 10 µM at hD2L receptor came to 9.3%. In data set [3], the 50% inhibitory concentration (IC50) was found to be 73 nM, the “5-HT6 affinity compared with known selective antagonists” value is “almost same affinities as or better affinities than known selective antagonists” and the inhibition at 10 µM worked out at 89.6%.

For `COc1ccc2c(c1)c(CCN(C)C)cn2S(=O)(=O)c1ccccc1` [MS-245], the pA2 on 5-HT6 receptors [5] is reported as 8.88.

For `COc1ccc(S(=O)(=O)Nc2cc(Br)cc(F)c2Br)cc1N1CCNCC1` [SB-357134], the “retention of a previously learned task” value with rats is given as “significant improvement in retention of a previously learned task”. Also, the “clearance (in words)” value in [6] is “low clearance rate”. The seizure threshold entry in data set [7] was “potent and dose-dependent increase in seizure threshold”.
